Source: PMC8271847, “In Silico Approach Using Free Software to Optimize the Antiproliferative Activity and Predict the Potential Mechanism of Action of Pyrrolizine-Based Schiff Bases” (Molecules, 2021)
Where two headings read alike, the source gives them in different places.

Tests used:
COX-2 = conditions: cited from earlier work
5-LOX = tested on: 5-LOX; set-up: method as in PMID 26994693; conditions: Figure 2; cited from earlier work
COX-1 = tested on: COX-1; set-up: method as in PMID 26994693; conditions: Figure 2; cited from earlier work
[1] = tested on: MCF7, A2780 and HT29 cancer cell lines; set-up: method as in PMID 31259695; conditions: read-out: IC50 range against the three cancer cell lines; cited from earlier work
A2780 cells [2] = tested on: A2780 cells; set-up: method as in PMID 31259695; conditions: quoted from previous publication; cited from earlier work
MCF7 cells [3] = tested on: MCF7 cells; set-up: method as in PMID 31259695; conditions: quoted from previous publication; cited from earlier work
HT29 cells [4] = tested on: HT29 cells; set-up: method as in PMID 31259695; conditions: quoted from previous publication; cited from earlier work
MCF7 cells [5] = test: MTT antiproliferative activity assay, MCF7; format: cell-based; conditions: for IC50: Homo sapiens, MCF7, MTT, 72 h, mean ± S.D. (n = 3); for Selectivity Index MCF7: IC50 against MRC5 divided by IC50 against MCF7
Experimental: (§1) The antiproliferative activities of the eight Schiff bases 16a–h against three cancer cell lines (MCF-7, A2780, and HT29) were evaluated using the MTT assay. The selection of these cell lines was done to compare the antiproliferative activities of the new compounds with those of compound 10 [20]. The assay was performed following the previous report.
(§2) In the current study, the three cancer cell lines (MCF7, A2780, and HT29) used were obtained from the ATCC. The cell lines were cultured following our previous report. On the other hand, the normal MRC5 cells used in the current study were maintained in Eagle’s minimum essential medium following the previous report.
(§3) The antiproliferative activity was measured using the MTT assay according to the previous report. Briefly, the cancer/normal cell lines were cultured in 96-well (3 × 10^3/well) separately. The cells were treated by tested compounds 16a–h in final concentrations of 0, 0.1, 1, 10, 25, and 50 μM and incubated at 37 °C for 72 h. The MTT was added and the antiproliferative activities (IC50 values) of the new compounds were calculated.

[6] = tested on: MCF7, A2780 and HT29 cancer cell lines; test: MTT antiproliferative activity assay, three cancer cell lines together; format: cell-based; conditions: for Selectivity index range toward the three cancer cell lines: MCF7, A2780, HT29 compared to MRC5 cells; for IC50: MCF7, A2780 and HT29, MTT, 72 h, read-out: IC50 range against the three cancer cell lines
Experimental: as §1, §2, §3

A2780 cells [7] = test: MTT antiproliferative activity assay, A2780; format: cell-based; conditions: for IC50: Homo sapiens, A2780, MTT, 72 h, mean ± S.D. (n = 3); for Selectivity Index A2780: IC50 against MRC5 divided by IC50 against A2780
Experimental: as §1, §2, §3

[8] = MTT assay against normal MRC5 cells; format: cell-based; conditions: human, 72 h treatment, mean ± SD (n = 3)
Experimental: Selectivity of the antiproliferative agents toward cancer cells plays a critical role in the development of these agents as potential anticancer drugs. […] In the current study, all of the new compounds 16a–h were evaluated for the antiproliferative activities against the normal MRC5 cells. […] The aim of this study was to assess the toxicity of the new compounds against normal MRC5 cells. In addition, the IC50 values were also used to calculate the selectivity index (SI) which measures the selective cytotoxicity of the new compounds.
as §2, §3

HT29 cells [9] = test: MTT antiproliferative activity assay, HT29; format: cell-based; conditions: for IC50: Homo sapiens, HT-29, MTT, 72 h, mean ± S.D. (n = 3); for Selectivity Index HT29: IC50 against MRC5 divided by IC50 against HT29
Experimental: as §1, §2, §3

MCF7 cells [10] = test: Cell cycle analysis by flow cytometry; format: cell-based; conditions: MCF7 cells, 0.01, 0.05, 0.10 μM, 72 h
Experimental: Cell cycle analysis of MCF7 cells was also performed to investigate the mechanism which mediates the antiproliferative activity of the new compounds. […] The assay was performed according to the previous report. The results are represented in Figure 11.
The effect of compound 16g on the cell cycle distribution of MCF7 was performed following the previous report. Briefly, the cancer cells were cultured for 72 h with 0.00, 0.01, 0.05, and 0.10 μM final concentration of compound 16g. Next, the cells were washed with PBS x1 and trypsinized. The collected cells were spinned and fixed with 70% ethanol. Ribonuclease A was added (15 min) after suspending the cells in cold PBS x1. Following the addition of propidium iodide, analysis of the ice-cold cells was done by flow cytometry (BC, FC500, Brea, CA, USA).

A549 cells = conditions: cited from earlier work
MCF7 = conditions: Figure 2; cited from earlier work
[11] = Figure 2, read-out: IC50 (COX-2)

Row | SMILES | IC50 (MCF7 cells [5]) | melting point | IC50 (A2780 cells [7]) | IC50 at 72 h [8] | IC50 (HT29 cells [9]) | Selectivity Index MCF7 (MCF7 cells [5]) | Selectivity Index A2780 (A2780 cells [7]) | Selectivity Index HT29 (HT29 cells [9]) | other results
1 | COC1c2c(-c3ccccc3)c(-c3ccc(Cl)cc3)c(C)n2CC1(C)C (stereo not shown) [Compound 8] |  |  |  |  |  |  |  |  | IC50 (COX-2; [11]): 7500 nM; IC50 (5-LOX): 60 nM; IC50 (COX-1): 500 nM
2 | Cc1ccc(-c2c(-c3ccc(S(C)(=O)=O)cc3)cn3c2CCC3)cc1 [Compound 9] |  |  |  |  |  |  |  |  | IC50 (COX-2; [11]): 5 nM; IC50 (5-LOX): 10000 nM; IC50 (COX-1): 700 nM
3 | Cc1ccc(NC(=O)c2c(/N=C/c3ccc(Cl)cc3)c(C#N)c3n2CCC3)cc1 [Compound 10] |  |  |  |  |  |  |  |  | IC50 [1]: 330 to 440 nM; IC50 (A2780 cells [2]): 440 ± 10 nM; IC50 (MCF7 cells [3]): 330 ± 120 nM; IC50 (HT29 cells [4]): 410 ± 20 nM
4 | O=C(c1ccccc1)c1ccc2n1CCC2C(=O)O (stereo not shown) [Ketorolac, ketorolac] |  |  |  |  |  |  |  |  | IC50 (COX-2; [11]): 140 nM; IC50 (A549 cells): ~13000 nM
5 | CS(=O)(=O)CCNCc1ccc(-c2ccc3ncnc(Nc4ccc(OCc5cccc(F)c5)c(Cl)c4)c3c2)o1 [Lapatinib, lapatinib, reference compound] | 5980 ± 1310 nM |  | 9860 ± 1720 nM | 14900 ± 2450 nM | 13200 ± 1820 nM | 2.49 | 1.51 | 1.13 | IC50 [6]: 5980 to 13200 nM
6 | CC1(C)Cc2c(-c3ccccc3)c(-c3ccc(Cl)cc3)c(CC(=O)O)n2C1 [Licofelone] |  |  |  |  |  |  |  |  | IC50 (COX-2; [11]): 4700 nM; IC50 (MCF7): 5500 nM
7 | CS(=O)(=O)c1ccc(C2=C(c3ccccc3)C(=O)OC2)cc1 [Rofecoxib, rofecoxib] |  |  |  |  |  |  |  |  | IC50 (COX-2; read-out: IC50 against COX-2): 530 nM

Continued, in another order:

Row | IC50 (MCF7 cells [5]) | melting point | IC50 (A2780 cells [7]) | IC50 at 72 h [8] | IC50 (HT29 cells [9]) | SMILES | Selectivity Index MCF7 (MCF7 cells [5]) | Selectivity Index A2780 (A2780 cells [7]) | Selectivity Index HT29 (HT29 cells [9]) | other results
8 | 40500 ± 10600 nM | 226 to 228 °C | 13900 ± 1920 nM | 1270 ± 480 nM | 190 ± 20 nM | COc1ccc(NC(=O)c2c(N=Cc3ccc(N(C)C)cc3)c(C#N)c3n2CCC3)cc1 [Compound 16a, 7-Cyano-6-((4-(dimethylamino)benzylidene)amino)-N-(4-methoxyphenyl)-2,3-dihydro-1H-pyrrolizine-5-carboxamide] | 0.03 | 0.09 | 6.68 | Selectivity index range toward the three cancer cell lines [6]: 0.03–6.68; IC50 [6]: 190 to 40500 nM
9 | 80 ± 10 nM | 244 to 246 °C | 900 ± 80 nM | 1270 ± 320 nM | 10200 ± 120 nM | CN(C)c1ccc(C=Nc2c(C#N)c3n(c2C(=O)Nc2ccc(F)cc2)CCC3)cc1 [Compound 16b, 7-Cyano-6-((4-(dimethylamino)benzylidene)amino)-N-(4-fluorophenyl)-2,3-dihydro-1H-pyrrolizine-5-carboxamide] | 15.88 | 1.41 | 0.12 | 
10 | 30 ± 10 nM | 231 to 233 °C | 140 ± 20 nM | 24100 ± 1310 nM | 2270 ± 610 nM | COc1ccc(NC(=O)c2c(N=Cc3ccc(C)cc3)c(C#N)c3n2CCC3)cc1 [Compound 16c, 7-Cyano-N-(4-methoxyphenyl)-6-((4-methylbenzylidene)amino)-2,3-dihydro-1H-pyrrolizine-5-carboxamide] |  |  | 10.60 | 
11 | 7050 ± 280 nM | 241 to 243 °C | 21200 ± 2430 nM | 2420 ± 560 nM | 170 ± 10 nM | Cc1ccc(C=Nc2c(C#N)c3n(c2C(=O)Nc2ccc(F)cc2)CCC3)cc1 [Compound 16d, 7-Cyano-N-(4-fluorophenyl)-6-((4-methylbenzylidene)amino)-2,3-dihydro-1H-pyrrolizine-5-carboxamide] | 0.34 | 0.11 | 14.24 | 
12 | 150 ± 20 nM | 239 to 241 °C | 1400 ± 210 nM | 2770 ± 90 nM | 340 ± 30 nM | COc1ccc(NC(=O)c2c(N=Cc3ccc(F)cc3)c(C#N)c3n2CCC3)cc1 [Compound 16e, 7-Cyano-6-((4-fluorobenzylidene)amino)-N-(4-methoxyphenyl)-2,3-dihydro-1H-pyrrolizine-5-carboxamide] | 18.47 | 1.98 | 8.15 | 
13 | 40400 ± 7700 nM | 253 to 255 °C | 490 ± 120 nM | 1340 ± 450 nM | 210 ± 120 nM | N#Cc1c(N=Cc2ccc(F)cc2)c(C(=O)Nc2ccc(F)cc2)n2c1CCC2 [Compound 16f, 7-Cyano-6-((4-fluorobenzylidene)amino)-N-(4-fluorophenyl)-2,3-dihydro-1H-pyrrolizine-5-carboxamide] | 0.03 | 2.73 | 6.38 | 
14 | 10 nM | 241 to 243 °C | 560 ± 10 nM | 5780 ± 630 nM | 370 ± 180 nM | COc1ccc(NC(=O)c2c(N=Cc3ccc(Cl)cc3)c(C#N)c3n2CCC3)cc1 [Compound 16g, 6-((4-Chlorobenzylidene)amino)-7-cyano-N-(4-methoxyphenyl)-2,3-dihydro-1H-pyrrolizine-5-carboxamide] |  | 10.32 | 15.62 | Cell cycle perturbation (MCF7 cells [10]): cell cycle arrest at the G2/M phase; Selectivity index range toward the three cancer cell lines [6]: 10.32–578.00
15 | 27000 ± 1670 nM | 262 to 264 °C | 42600 ± 3470 nM | 1600 ± 120 nM | 710 ± 290 nM | N#Cc1c(N=Cc2ccc(Cl)cc2)c(C(=O)Nc2ccc(F)cc2)n2c1CCC2 [Compound 16h, 6-((4-Chlorobenzylidene)amino)-7-cyano-N-(4-fluorophenyl)-2,3-dihydro-1H-pyrrolizine-5-carboxamide] | 0.06 | 0.04 | 2.25 | 
